Assay results from US20230114854A1, “CHIMERIC ANTIGEN RECEPTOR TARGETING B-CELL MATURATION ANTIGEN AND USE THEREOF” (CELLGENTEK CO., LTD., priority 2020, published 2023).
Values joined by “and” are separate entries in the source; they are usually repeats but may differ in a detail not shown here. Equal entries are not always repeated.

B1: BCMA-CAR3 (protein)
chain: EVQLLESGGGLVQPGGSLRLSCAASGFTFSDYGLSWVRQAPGKGLEWVSLIDSSGSSTFYADSVKGRFTISRDNSKNTLYLQMNSLRAEDTAVYYCAKEHGLFDSWGQGTLVTVSSGSTSGSGKPSGEGSTKGEIVLTQSPGTLSLSPGERATLSCKASQDIDDDINWYQQKPGQAPRLLIYDASLRATGIPDRFSGSGSGTDFTLTISRLEPEDFAVYYCQQSLRTPITFGQGTKLEIKRALSNSIMYFSHFVPVFLPAKPTTTPAPRPPTPAPTIASQPLSLRPEASRPAAGGAVHTRGLDKPFWVLVVVGGVLACYSLLVTVAFIIFWVRSKRSRLLHSDYMNMTPRRPGPTRKHYQPYAPPRDFAAYRSGGGGSKRGRKKLLYIFKQPFMRPVQTTQEEDGCSCRFPEEEEGGCELGGGGSRVKFSRSADAPAYQQGQNQLYNELNLGRREEYDVLDKRRGRDPEMGGKPRRKNPQEGLYNELQKDKMAEAYSEIGMKGERRRGKGHDGLYQGLSTATKDTYDALHMQALPPR
B2: BCMA-CAR4 (protein)
chain: EVQLLESGGGLVQPGGSLRLSCAASGFTFSGHYWSWVRQAPGKGLEWVSTVSGSGGDTFYADSVKGRFTISRDNSKNTLYLQMNSLRAEDTAVYYCARGHSVMDVWGQGTLVTVSSGSTSGSGKPSGEGSTKGEIVLTQSPGTLSLSPGERATLSCRASQGIDSYVAWYQQKPGQAPRLLIYDASLRATGIPDRFSGSGSGTDFTLTISRLEPEDFAVYYCQQYNSWPITFGQGTKLEIKRALSNSIMYFSHFVPVFLPAKPTTTPAPRPPTPAPTIASQPLSLRPEASRPAAGGAVHTRGLDKPFWVLVVVGGVLACYSLLVTVAFIIFWVRSKRSRLLHSDYMNMTPRRPGPTRKHYQPYAPPRDFAAYRSGGGGSKRGRKKLLYIFKQPFMRPVQTTQEEDGCSCRFPEEEEGGCELGGGGSRVKFSRSADAPAYQQGQNQLYNELNLGRREEYDVLDKRRGRDPEMGGKPRRKNPQEGLYNELQKDKMAEAYSEIGMKGERRRGKGHDGLYQGLSTATKDTYDALHMQALPPR
B3: BCMA-CAR2 (protein)
chain: EVQLLESGGGLVQPGGSLRLSCAASGFTFSNYGVHWVRQAPGKGLEWVSYISYSGGTYYNPSLKSRFTISRDNSKNTLYLQMNSLRAEDTAVYYCARDSDDFGFDYWGQGTLVTVSSGSTSGSGKPSGEGSTKGQSVLTQPPSASGTPGQRVTISCQGDSLRSYYVNWYQQLPGTAPKLLIYDHSKRPTGVPDRFSGSKSGTSASLAISGLRSEDEADYYCQSYDSSTVVFGGGTKLTVLGALSNSIMYFSHFVPVFLPAKPTTTPAPRPPTPAPTIASQPLSLRPEASRPAAGGAVHTRGLDKPFWVLVVVGGVLACYSLLVTVAFIIFWVRSKRSRLLHSDYMNMTPRRPGPTRKHYQPYAPPRDFAAYRSGGGGSKRGRKKLLYIFKQPFMRPVQTTQEEDGCSCRFPEEEEGGCELGGGGSRVKFSRSADAPAYQQGQNQLYNELNLGRREEYDVLDKRRGRDPEMGGKPRRKNPQEGLYNELQKDKMAEAYSEIGMKGERRRGKGHDGLYQGLSTATKDTYDALHMQALPPR

Tests used:
[1] = system: multiple myeloma cell line H929 xenograft; conditions: for growth inhibition rate (GIR (%)) versus untreated group (Vehicle): Day 17, NK cells 1×10^7 cells i.v. ×3, Velcade and Darzalex 0.5 mg/kg i.p. ×5
Method: In a xenograft animal model using NOD.Cg-Prkdcscid Il2rgtm1Wj1/SzJ (NSG) mouse (Jackson Laboratory, Jax #00557 strain), the anticancer efficacy of BCMA-CAR NK cells expressing BCMA-CAR1 was evaluated.
After subcutaneous implantation of multiple myeloma cell line H929 with high BCMA expression, when the tumor size reached 150 mm^3 (10 days post implantation), 5 mice were randomly assigned to each group, and once every 5 days, BCMA-CAR NK cells or control NK cells (NKvec) were administered at a concentration of 1×10^7 cells via intravenous tail vein injection (i.v.) in a total of 3 administrations. Here, a proteasome inhibitor, Velcade® (ingredient name: Bortezomib) and an antibody medication, Darzalex® (ingredient name: Daratumumab) being used as treatment medications for multiple myeloma patients were used as control drugs, and Velcade® (Vel) and Darzalex® (Dara) were each administered at a concentration of 0.5 mg/kg via intraperitoneal (i.p.) route, once every 3-4 days, in a total of 5 administrations.

[2] = biological target: BCMA expressed on multiple myeloma cells (H929, MM1.R, OPM-2) (UniProt Q02223); assay: cell-based or functional assay
UniProt Q02223, sequence (Q02223 whole entry): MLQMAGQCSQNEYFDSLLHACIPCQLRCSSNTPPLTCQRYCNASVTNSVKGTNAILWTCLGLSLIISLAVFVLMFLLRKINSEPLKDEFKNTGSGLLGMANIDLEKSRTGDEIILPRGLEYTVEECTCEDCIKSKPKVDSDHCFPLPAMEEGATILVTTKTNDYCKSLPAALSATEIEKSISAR

Row | Molecule | growth inhibition rate (GIR (%)) versus untreated group (Vehicle) [1] [%] | toxicity (body weight) ([1]; mouse, in vivo) | cytolytic activity toward multiple myeloma cells (H929, MM1.R, OPM-2), versus control NK cells (NKvec) [2]
1 | CC(C)C[C@H](NC(=O)[C@H](Cc1ccccc1)NC(=O)c1cnccn1)B(O)O [Velcade, Bortezomib] | 39 | toxicity i.e., a decrease in body weight | 
2 | Daratumumab [Darzalex] | 23 |  | 
3 | B1 |  |  | 3 to 4 times and > 4 times
4 | B2 |  |  | 3 to 4 times and > 4 times
5 | B3 |  |  | 3 to 4 times and > 4 times
